Reference: US20230027066A1 (Urovant Sciences GmbH, priority 2019, published 2023)

System: men and women with overactive bladder
Test: Phase 3 study of vibegron 75 mg vs placebo and tolterodine ER 4 mg, 12 weeks, efficacy (voiding and urine volume diary)
Type: in vivo, human
Settings: for First 50% Reduction in Urgency Episodes, Events / First 100% Reduction in UUI Episodes, Events: events of Events/Censored
Experimental: Enrollment of patients included individuals with OAB Wet (those with UUI, the involuntary loss of urine accompanied by urgency) and OAB Dry (those without UUI). A total of 1,518 patients were randomized across 215 study sites into one of three groups for a 12-week treatment period.
The study consisted of a Screening Period (1 to 5 weeks), a single-blind Run-in Period (2 weeks), a randomized double-blind Treatment Period (12 weeks), and a Follow-up Period (4 weeks).
Tolterodine ER 4 mg was the active control. […] Between the Baseline and Week 12 Visits, patients had study assessments at Week 4 and Week 8.
The Patient Voiding Diary was used by participants (via the eDiary or paper Diary) to record the frequency of daily OAB symptoms including all micturitions, urgency, incontinence, and main reason for incontinence by selecting the respective box for each symptom occurring during the course of a given day and night.
Urine volume data were collected separately by patients using the Urine Volume component of the eDiary, or the paper Urine Volume Chart. The Urine Volume Chart is a tool used in clinical practice and clinical investigation to assess voiding functions over a 24-hour period and is regarded as a useful instrument in the investigation of patients with voiding symptoms. Urine volume may be collected during any one (1) of the 7 Diary Days prior to the visit, and it should be recorded for ˜24 hours starting from the time the patient gets up for the day and continues until the time the patient gets up for the day on the next day.
For the purpose of this study, the number of micturitions was defined as the number of times a patient has voided in the toilet as indicated on the Patient Voiding Diary. Average daily micturitions were calculated using the daily entries in the Patient Voiding Diary, which was completed over the 7 days prior to each study visit. Average daily number of micturitions were calculated as the total number of micturitions that occurred on a Complete Diary Day divided by the number of Complete Diary Days in the Patient Voiding Diary. A complete diary day required confirmation by the patient in the Patient Voiding Diary that all voids and leakages had been recorded for the diary day. Baseline was defined as the average number of micturitions occurring during the last evaluable diary prior to the Baseline Visit.
The number of UUI episodes was defined as the number of times a patient had checked “urge” as the reason for accidental urine leakage. Average daily UUI episodes at each study visit were calculated in the same manner as described above for the micturition endpoint. The UUI endpoint were analyzed using only OAB Wet patients.
For the analysis of the co-primary endpoints (change from baseline in average number of daily micturitions at Week 12 and change from baseline in average number of daily urge urinary incontinence episodes at Week 12, and placebo adjustment of each), a mixed model for repeated measure (MMRM) with restricted maximum likelihood estimation was used. This model corrects for dropout and accounts for the fact that measurements taken on the same patient over time tend to be correlated by using all available information on patients within the same covariate set to derive an estimate of the treatment effect for a dropout-free population. The analysis model for each efficacy endpoint includes terms for treatment, visit, OAB Type (Wet vs Dry), Sex (Female vs Male), Region (US vs Rest of World), baseline score, and interaction of visit by treatment.
Primary inferences were drawn from treatment differences for the changes from baseline derived from the MMRM models at Week 12. As part of secondary objectives, the treatment differences for each post baseline visit were also derived using the same MMRM model. […]

[1] = Week 12, Age ≥ 75 years (posthoc analysis)
[2] = Week 12, No Prior ACH Use in last 12 Mo.
[3] = Week 12, No Prior B3 Agonist Use in last 12 Mo.
[4] = Week 12, Prior ACH Use in last 12 Mo.
[5] = Week 12, Prior B3 Agonist Use in last 12 Mo.

`O=C(Nc1ccc(C[C@@H]2CC[C@H]([C@H](O)c3ccccc3)N2)cc1)[C@@H]1CCc2nccc(=O)n21` [Vibegron, (6S)-N-[4-[[(2S,5R)−5-[(R)-hydroxy(phenyl)methyl]pyrrolidin−2-yl]methyl]phenyl]−4-oxo−7,8-dihydro−6H-pyrrolo[1,2-a]pyrimidine−6-carboxamide] was tested, and the “Change from baseline in average volume voided per micturition, LS Mean (SE)” value (Week 8) was 21.4 (3.20) mL, the “Estimated Incidence of Subjects with 50% Decrease from Baseline (urgency episodes)” value (Week 8) was 31.8 and the “Estimated Incidence of Subjects with 100% Decrease from Baseline (UUI episodes)” value (Week 8) was 21.4. The “Total Incontinence, Active - Placebo LS Mean Difference (SE)” value (Week 8) was −0.7 (0.15), the “Urgency episodes, Active - Placebo LS Mean Difference” value (Week 8) was −0.8 and the “First 50% Reduction in Urgency Episodes, Events” value (Week 8) was 166/360. For the same molecule, the “First 100% Reduction in UUI Episodes, Events” value (Week 8) was 86/317, the “Average Daily Number of Total Incontinence, Mean (SD)” value (Week 12) was 1.89 (3.120) and the “Average daily number of urgency episodes, Mean (SD)” value (Week 12) was 5.29 (4.500). For the same molecule, the “Average volume voided per micturition, Active - Placebo LS Mean Difference” value (Week 12) was 21.2 mL, the “Average volume voided per micturition, Week 12 Mean (SD)” value (Week 12) was 175.3 (81.78) mL and the “Change from Baseline in Average Daily Number of Total Incontinence, LS Mean (SE)” value (Week 12) was −2.3 (0.15). For the same molecule, the “Change from baseline in average daily number of urgency episodes, LS Mean” value (Week 12) was −2.7, the “Change from baseline in average volume voided per micturition, LS Mean (SE)” value (Week 12) was 23.5 (3.26) mL and the “Estimated Incidence of Subjects with 50% Decrease from Baseline (urgency episodes)” value (Week 12) was 43.8. For the same molecule, the “Estimated Incidence of Subjects with 100% Decrease from Baseline (UUI episodes)” value (Week 12) was 30.0, the “Total Incontinence, Active - Placebo LS Mean Difference (SE)” value (Week 12) was −0.7 (0.16) and the “Urgency episodes, Active - Placebo LS Mean Difference” value (Week 12) was −0.7. For the same molecule, the “Micturitions: Week 12 CFB Mean (descriptive statistics)” value (from here on “Micturitions: Week 12 CFB Mean”) (Week 12, <65 yrs) was −1.99, the “UUI: Week 12 CFB Mean (descriptive statistics)” value (shortened to “UUI: Week 12 CFB Mean”) (Week 12, African American) was −1.61 and the “UUI: Week 12 CFB Median” value (Week 12, African American) was −1.26. For the same molecule, the “Micturitions: Week 12 CFB LS Mean (95% CI)” value (“Micturitions … (95% CI)” for short) (Week 12, Age < 65 years) was −1.7, the “UUI: Week 12 CFB LS Mean (95% CI)” value (Week 12, Age < 65 years) was −2.0 and the “UUI: Week 12 CFB Mean” value (Week 12, Age < 65 years) was −2.08. For the same molecule, the “Micturitions … (95% CI)” value (Week 12, Age ≥ 65 years) was −1.9, the “UUI: Week 12 CFB LS Mean (95% CI)” value (Week 12, Age ≥ 65 years) was −2.0 and the “UUI: Week 12 CFB Mean” value (Week 12, Age ≥ 65 years) was −1.94. The “Micturitions … (95% CI)” value [1] was −2.1, the “UUI: Week 12 CFB LS Mean (95% CI)” value [1] was −2.0 and the “UUI: Week 12 CFB Mean” value (Week 12, Asian) was −0.07. The “UUI: Week 12 CFB Median” value (Week 12, Asian) was 0.00, the “Micturitions … (95% CI)” value (Week 12, Females) was −1.9 and the “Micturitions: Week 12 CFB Mean” value (Week 12, Females) was −2.05. The “UUI: Week 12 CFB LS Mean (95% CI)” value (Week 12, Females) was −2.1, the “UUI: Week 12 CFB Mean” value (Week 12, Females) was −2.10 and the “Micturitions … (95% CI)” value (Week 12, Males) was −1.7. For the same molecule, the “Micturitions: Week 12 CFB Mean” value (Week 12, Males) was −1.97, the “UUI: Week 12 CFB LS Mean (95% CI)” value (Week 12, Males) was −1.6 and the “UUI: Week 12 CFB Mean” value (Week 12, Males) was −1.35. For the same molecule, the “Micturitions: Week 12 CFB Mean” value (Week 12, Males with BPH) was −1.50, the “UUI: Week 12 CFB Mean” value (Week 12, Males with BPH) was −1.09 and the “Micturitions: Week 12 CFB Mean” value (Week 12, Males without BPH) was −2.26. For the same molecule, the “UUI: Week 12 CFB Mean” value (Week 12, Males without BPH) was −1.51, the “Micturitions: Week 12 CFB Mean” value [2] was −2.05 and the “UUI: Week 12 CFB Mean” value [2] was −2.12. The “Micturitions: Week 12 CFB Mean” value [3] was −2.01, the “UUI: Week 12 CFB Mean” value [3] was −2.03 and the “Micturitions … (95% CI)” value (Week 12, Non-White) was −1.7. For the same molecule, the “Micturitions: Week 12 CFB Mean” value (Week 12, Non-White) was −2.18, the “UUI: Week 12 CFB LS Mean (95% CI)” value (Week 12, Non-White) was −1.3 and the “UUI: Week 12 CFB Mean” value (Week 12, Non-White) was −1.14. For the same molecule, the “UUI: Week 12 CFB Median” value (Week 12, Non-White) was −1.00, the “Micturitions … (95% CI)” value (Week 12, Overall) was −1.8 and the “Micturitions: Week 12 CFB Mean” value (Week 12, Overall) was −2.04. The “UUI: Week 12 CFB LS Mean (95% CI)” value (Week 12, Overall) was −2.0, the “UUI: Week 12 CFB Mean” value (Week 12, Overall) was −2.01 and the “Micturitions: Week 12 CFB Mean” value [4] was −1.97. The “UUI: Week 12 CFB Mean” value [4] was −1.46, the “Micturitions: Week 12 CFB Mean” value [5] was −2.83 and the “UUI: Week 12 CFB Mean” value [5] was −1.64. The “Micturitions … (95% CI)” value (Week 12, Region: Non-US) was −1.8, the “Micturitions: Week 12 CFB Mean” value (Week 12, Region: Non-US) was −2.26 and the “UUI: Week 12 CFB LS Mean (95% CI)” value (Week 12, Region: Non-US) was −2.4. The “UUI: Week 12 CFB Mean” value (Week 12, Region: Non-US) was −2.60, the “Micturitions … (95% CI)” value (Week 12, Region: US) was −1.9 and the “Micturitions: Week 12 CFB Mean” value (Week 12, Region: US) was −2.01. For the same molecule, the “UUI: Week 12 CFB LS Mean (95% CI)” value (Week 12, Region: US) was −1.9, the “UUI: Week 12 CFB Mean” value (Week 12, Region: US) was −1.92 and the “Micturitions … (95% CI)” value (Week 12, White) was −1.8. The “Micturitions: Week 12 CFB Mean” value (Week 12, White) was −2.01, the “UUI: Week 12 CFB LS Mean (95% CI)” value (Week 12, White) was −2.2 and the “UUI: Week 12 CFB Mean” value (Week 12, White) was −2.23. The “UUI: Week 12 CFB Median” value (Week 12, White) was −1.78, the “Micturitions, Week 12 LS Mean Change from Baseline (Placebo-Adjusted)” value (Week 12, co-primary endpoint) was −0.5 and the “UUI Episodes, Week 12 LS Mean Change from Baseline (Placebo-Adjusted)” value (Week 12, co-primary endpoint) was −0.6. The “First 50% Reduction in Urgency Episodes, Events” value (Week 12) was 225/301, the “First 100% Reduction in UUI Episodes, Events” value (Week 12) was 119/284 and the “Total Incontinence Episodes, Week 12 LS Mean Change from Baseline (Placebo-Adjusted)” value (Week 12, secondary endpoint) was −0.7. For the same molecule, the “Urgency Episodes, Week 12 LS Mean Change from Baseline (Placebo-Adjusted)” value (Week 12, secondary endpoint) was −0.7 and the “Micturitions, change at Week 12, mean (SD)” value (Week 12, subpopulation Age ≥65 years) was −2.10 (2.83).
